{
  "source": "the supplement of paper PMC10307832",
  "experiment_in_all_cases": "relative viability (nuclei count vs DMSO), 5 days (fraction); higher = more cells survive",
  "key": {"[1]": {"compound": "CC(C)N(CCCNC(=O)Nc1ccc(C(C)(C)C)cc1)C[C@H]1O[C@@H](n2ccc3c(N)ncnc32)[C@H](O)[C@@H]1O + N=C(N)NC(=N)NCCc1ccccc1 [Phenformin] (partner 250 µM)", "procedure,_shortened": "(§1)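 Lung cancer cell lines were seeded in 1536-well plates and dosed by pin tool the next day, with either a single drug or a fixed anchor-drug dose combined with five library-drug doses (not always all listed) spaced in √10 steps. Five days later, one step fixed the cells and stained their nuclei (final 0.05% Triton X-100, 1% formaldehyde, 1 ug/ml Hoechst), and nuclei were counted on 4× images. Relative viability is the nuclei count in treated wells divided by the count in vehicle wells, and each value is the median of duplicate plates.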"}, "Shikonin + Dasatinib": {"compound": "CC(C)=CC[C@@H](O)C1=CC(=O)c2c(O)ccc(O)c2C1=O [Shikonin] + Cc1nc(Nc2ncc(C(=O)Nc3c(C)cccc3Cl)s2)cc(N2CCN(CCO)CC2)n1 [Dasatinib] (partner 0.075 µM)", "procedure,_shortened": "as §1"}, "[2]": {"compound": "CC(C)N(CCCNC(=O)Nc1ccc(C(C)(C)C)cc1)C[C@H]1O[C@@H](n2ccc3c(N)ncnc32)[C@H](O)[C@@H]1O + COc1cc2c(Oc3ccc(NC(=O)C4(C(=O)Nc5ccc(F)cc5)CC4)cc3F)ccnc2cc1OCCCN1CCOCC1 [Foretinib] (partner 0.25 µM)", "procedure,_shortened": "as §1"}, "Shikonin + Alpelisib": {"compound": "CC(C)=CC[C@@H](O)C1=CC(=O)c2c(O)ccc(O)c2C1=O [Shikonin] + Cc1nc(NC(=O)N2CCC[C@H]2C(N)=O)sc1-c1ccnc(C(C)(C)C(F)(F)F)c1 [Alpelisib] (partner 2 µM)", "procedure,_shortened": "as §1"}},
  "data": [
    {"cell line": "CAL-12T", "values": [
      {"measurement": "relative viability", "setting": "[1]; first compound 0.08 µM", "result": 0.539},
      {"measurement": "relative viability", "setting": "[1]; first compound 0.253 µM", "result": 0.597},
      {"measurement": "relative viability", "setting": "[1]; first compound 0.8 µM", "result": 0.585},
      {"measurement": "relative viability", "setting": "[1]; first compound 2.53 µM", "result": 0.56},
      {"measurement": "relative viability", "setting": "[1]; first compound 8 µM", "result": 0.489},
      {"measurement": "relative viability", "setting": "Shikonin + Dasatinib; first compound 0.01 µM", "result": 0.557},
      {"measurement": "relative viability", "setting": "Shikonin + Dasatinib; first compound 0.1 µM", "result": 0.333},
      {"measurement": "relative viability", "setting": "Shikonin + Dasatinib; first compound 0.3162 µM", "result": 0.356},
      {"measurement": "relative viability", "setting": "Shikonin + Dasatinib; first compound 1 µM", "result": 0.302},
      {"measurement": "relative viability", "setting": "[2]; first compound 0.08 µM", "result": 1.2},
      {"measurement": "relative viability", "setting": "[2]; first compound 0.253 µM", "result": 1.06},
      {"measurement": "relative viability", "setting": "[2]; first compound 0.8 µM", "result": 1.07},
      {"measurement": "relative viability", "setting": "[2]; first compound 2.53 µM", "result": 1.2},
      {"measurement": "relative viability", "setting": "[2]; first compound 8 µM", "result": 0.944},
      {"measurement": "relative viability", "setting": "Shikonin + Alpelisib; first compound 0.01 µM", "result": 1.14},
      {"measurement": "relative viability", "setting": "Shikonin + Alpelisib; first compound 0.1 µM", "result": 1.13},
      {"measurement": "relative viability", "setting": "Shikonin + Alpelisib; first compound 0.3162 µM", "result": 1.19},
      {"measurement": "relative viability", "setting": "Shikonin + Alpelisib; first compound 1 µM", "result": 1.2}
    ]},
    {"cell line": "COR-L23", "values": [
      {"measurement": "relative viability", "setting": "[1]; first compound 0.08 µM", "result": 0.467},
      {"measurement": "relative viability", "setting": "[1]; first compound 0.253 µM", "result": 0.418},
      {"measurement": "relative viability", "setting": "[1]; first compound 0.8 µM", "result": 0.434},
      {"measurement": "relative viability", "setting": "[1]; first compound 2.53 µM", "result": 0.426},
      {"measurement": "relative viability", "setting": "[1]; first compound 8 µM", "result": 0.418},
      {"measurement": "relative viability", "setting": "Shikonin + Dasatinib; first compound 0.01 µM", "result": 0.482},
      {"measurement": "relative viability", "setting": "Shikonin + Dasatinib; first compound 0.1 µM", "result": 0.49},
      {"measurement": "relative viability", "setting": "Shikonin + Dasatinib; first compound 0.3162 µM", "result": 0.532},
      {"measurement": "relative viability", "setting": "Shikonin + Dasatinib; first compound 1 µM", "result": 0.462},
      {"measurement": "relative viability", "setting": "[2]; first compound 0.08 µM", "result": 0.843},
      {"measurement": "relative viability", "setting": "[2]; first compound 0.253 µM", "result": 1.02},
      {"measurement": "relative viability", "setting": "[2]; first compound 0.8 µM", "result": 1.02},
      {"measurement": "relative viability", "setting": "[2]; first compound 2.53 µM", "result": 0.986},
      {"measurement": "relative viability", "setting": "[2]; first compound 8 µM", "result": 0.962},
      {"measurement": "relative viability", "setting": "Shikonin + Alpelisib; first compound 0.01 µM", "result": 0.845},
      {"measurement": "relative viability", "setting": "Shikonin + Alpelisib; first compound 0.1 µM", "result": 0.913},
      {"measurement": "relative viability", "setting": "Shikonin + Alpelisib; first compound 0.3162 µM", "result": 0.86},
      {"measurement": "relative viability", "setting": "Shikonin + Alpelisib; first compound 1 µM", "result": 0.719}
    ]},
    {"cell line": "COR-L 105", "values": [
      {"measurement": "relative viability", "setting": "[1]; first compound 0.08 µM", "result": 0.393},
      {"measurement": "relative viability", "setting": "[1]; first compound 0.253 µM", "result": 0.503},
      {"measurement": "relative viability", "setting": "[1]; first compound 0.8 µM", "result": 0.583},
      {"measurement": "relative viability", "setting": "[1]; first compound 2.53 µM", "result": 0.394},
      {"measurement": "relative viability", "setting": "[1]; first compound 8 µM", "result": 0.473},
      {"measurement": "relative viability", "setting": "Shikonin + Dasatinib; first compound 0.01 µM", "result": 0.329},
      {"measurement": "relative viability", "setting": "Shikonin + Dasatinib; first compound 0.1 µM", "result": 0.329},
      {"measurement": "relative viability", "setting": "Shikonin + Dasatinib; first compound 0.3162 µM", "result": 0.307},
      {"measurement": "relative viability", "setting": "Shikonin + Dasatinib; first compound 1 µM", "result": 0.335},
      {"measurement": "relative viability", "setting": "[2]; first compound 0.08 µM", "result": 1.14},
      {"measurement": "relative viability", "setting": "[2]; first compound 0.253 µM", "result": 0.99},
      {"measurement": "relative viability", "setting": "[2]; first compound 0.8 µM", "result": 1.02},
      {"measurement": "relative viability", "setting": "[2]; first compound 2.53 µM", "result": 1.07},
      {"measurement": "relative viability", "setting": "[2]; first compound 8 µM", "result": 1.03},
      {"measurement": "relative viability", "setting": "Shikonin + Alpelisib; first compound 0.01 µM", "result": 1.09},
      {"measurement": "relative viability", "setting": "Shikonin + Alpelisib; first compound 0.1 µM", "result": 1.18},
      {"measurement": "relative viability", "setting": "Shikonin + Alpelisib; first compound 0.3162 µM", "result": 1.07},
      {"measurement": "relative viability", "setting": "Shikonin + Alpelisib; first compound 1 µM", "result": 0.728}
    ]},
    {"cell line": "Calu-6", "values": [
      {"measurement": "relative viability", "setting": "[2]; first compound 0.08 µM", "result": 0.847},
      {"measurement": "relative viability", "setting": "[2]; first compound 0.253 µM", "result": 0.872},
      {"measurement": "relative viability", "setting": "[2]; first compound 0.8 µM", "result": 0.923},
      {"measurement": "relative viability", "setting": "[2]; first compound 2.53 µM", "result": 0.839},
      {"measurement": "relative viability", "setting": "[2]; first compound 8 µM", "result": 0.823},
      {"measurement": "relative viability", "setting": "Shikonin + Alpelisib; first compound 0.01 µM", "result": 0.921},
      {"measurement": "relative viability", "setting": "Shikonin + Alpelisib; first compound 0.1 µM", "result": 1.23},
      {"measurement": "relative viability", "setting": "Shikonin + Alpelisib; first compound 0.3162 µM", "result": 0.88},
      {"measurement": "relative viability", "setting": "Shikonin + Alpelisib; first compound 1 µM", "result": 0.934}
    ]},
    {"cell line": "ChaGo-K-1", "values": [
      {"measurement": "relative viability", "setting": "[1]; first compound 0.08 µM", "result": 0.494},
      {"measurement": "relative viability", "setting": "[1]; first compound 0.253 µM", "result": 0.47},
      {"measurement": "relative viability", "setting": "[1]; first compound 0.8 µM", "result": 0.427},
      {"measurement": "relative viability", "setting": "[1]; first compound 2.53 µM", "result": 0.458},
      {"measurement": "relative viability", "setting": "[1]; first compound 8 µM", "result": 0.46},
      {"measurement": "relative viability", "setting": "Shikonin + Dasatinib; first compound 0.01 µM", "result": 0.501},
      {"measurement": "relative viability", "setting": "Shikonin + Dasatinib; first compound 0.1 µM", "result": 0.616},
      {"measurement": "relative viability", "setting": "Shikonin + Dasatinib; first compound 0.3162 µM", "result": 0.56},
      {"measurement": "relative viability", "setting": "Shikonin + Dasatinib; first compound 1 µM", "result": 0.67},
      {"measurement": "relative viability", "setting": "[2]; first compound 0.08 µM", "result": 0.915},
      {"measurement": "relative viability", "setting": "[2]; first compound 0.253 µM", "result": 0.924},
      {"measurement": "relative viability", "setting": "[2]; first compound 0.8 µM", "result": 0.974},
      {"measurement": "relative viability", "setting": "[2]; first compound 2.53 µM", "result": 0.901},
      {"measurement": "relative viability", "setting": "[2]; first compound 8 µM", "result": 0.976}
    ]}
  ]
}
